# Literature values, collected in patent publication US20140090255A1, “Skin Engaging Member Comprising At Least One Thermally Resilient Sensate” (The Gillette Company, priority 2012, published 2014).
# Conditions: concentration where the cooling effect could be clearly recognized; Emberger and Hopp 1987
row,SMILES,cooling threshold
1,"CC(C)[C@@H]1CC[C@@H](C)C[C@@H]1O [Example 1-neomenthol, 1-neomenthol]","about 3,000 ppb"
2,CC(C)[C@@H]1CC[C@@H](C)C[C@H]1O [L-menthol],about 800 ppb
3,CC(C)[C@@H]1CC[C@@H](C)C[C@@H]1O [d-neomenthol],"about 25,000 ppb"
